Results as given in article PMC9822396 (Molecules, 2022).
“And” between values parts separate entries of the source, which are not always exact repeats. Equal values may be shown once. “Also recorded” adds a separate entry of the source.

What was measured:
[1] = target: T1, hMAO-A (Homo sapiens, UniProt P21397); assay: biochemical; conditions: for remaining activity at 10 µM: read-out: Residual Activity at 10 µM (%) hMAO-A
T1 construct: purchased Sigma-Aldrich
T1 sequence (P21397 1-527): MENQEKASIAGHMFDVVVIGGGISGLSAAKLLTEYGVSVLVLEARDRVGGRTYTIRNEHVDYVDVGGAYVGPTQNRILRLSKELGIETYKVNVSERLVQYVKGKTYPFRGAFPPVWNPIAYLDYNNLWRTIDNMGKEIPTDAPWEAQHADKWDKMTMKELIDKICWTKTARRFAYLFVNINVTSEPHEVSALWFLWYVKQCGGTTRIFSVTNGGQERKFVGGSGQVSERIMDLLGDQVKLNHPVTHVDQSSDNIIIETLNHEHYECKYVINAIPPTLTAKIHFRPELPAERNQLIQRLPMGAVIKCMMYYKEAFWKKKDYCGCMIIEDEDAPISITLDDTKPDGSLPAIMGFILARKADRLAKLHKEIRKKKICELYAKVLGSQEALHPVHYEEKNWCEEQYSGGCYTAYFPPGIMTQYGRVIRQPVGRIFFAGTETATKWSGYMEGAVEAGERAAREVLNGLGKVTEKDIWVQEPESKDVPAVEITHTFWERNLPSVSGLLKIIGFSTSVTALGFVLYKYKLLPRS
Protocol: (§1) All other chemicals were of reagent grade.
(§2) hMAO-A and -B activities were determined using a continuous spectrophotometric method, as described previously. […] AChE and BChE activities were assayed as described by Ellman et al., with slight modification. Reactions were performed using AChE and BChE in the 0.5 mL reaction mixtures including 0.5 mM substrate (ATCI and BTCI, respectively) and color reagent (DTNB). […] Reaction rates are expressed as changes in absorbance per min.. Inhibitory activities of AChE and BChE were measured after preincubating enzyme with inhibitors for 15 min before adding DTNB and each substrate.
Inhibitory types and Ki values were determined using Lineweaver-Burk plots and secondary plots of their slopes, respectively.

[2] = test system: SH-SY5Y cells; assay: Cytotoxicity, CCK-8 cell viability, SH-SY5Y; format: cell-based, human; conditions: neuroblastoma, 24 h
Excerpt: (§3) Dimethyl sulfoxide (DMSO) and 2-mercaptoethanol (2-ME) were obtained from Sigma Aldrich. Cell counting kit-8 (CCK-8) was obtained from Dojindo Laboratories (Kumamoto, Japan). Madin-Darby canine kidney (MDCK; KCLB 10034) cells, human acute promyelocytic leukemia (HL-60; KCLB 10240) cells, and human neuroblastoma cells (SH-SY5Y; KCLB 22266) were purchased from the Korean Cell Line Bank (KCLB, Seoul, Republic of Korea).
(§4) Passages were used between 10 and 30. Following trypsinization, MDCK (1 × 10^4), HL-60 (5 × 10^4), and SH-SY5Y (5 × 10^4) cells were seeded in 96-well plates and treated with 1, 3, 10, 30 and 50 µM of each inhibitor. The plates were then incubated for 24 h at 37 °C with 5% CO2, and cell viability was determined by the CCK-8 and by measuring the optical density at 450 nm using a microplate reader (Versa Max, Molecular Devices, Sunnyvale, CA, USA). The cell viability was expressed as % by comparing the absorbance of the sample to that of the control. Statistical differences between groups were analyzed by ANOVA using IBM SPSS statistics 27 and probability values (p-values) less than 0.05 were marked as significant values.

[3] = Cytotoxicity, CCK-8 cell viability, SH-SY5Y; format: cell-based, human; conditions: human, 30 µM
Excerpt: as §3, §4

[4] = test system: HL-60 cells; assay: Cytotoxicity, CCK-8 cell viability, HL-60; format: cell-based, human; conditions: cancer cell line, up to 50 µM, 24 h
Excerpt: as §3, §4

[5] = target: T1, hMAO-A; assay: Reversibility of hMAO-A inhibition by dialysis; format: biochemical
Protocol: (§5) After preincubating compounds or reference inhibitors with hMAO-A and hMAO-B, residual activities for undialyzed and dialyzed samples were measured. Relative values for undialyzed (AU) and dialyzed (AD) activities were then calculated and compared with non-inhibitor treated controls. Reversibilities were determined by comparing the AU and AD values of inhibitors with those of references.

[6] = target: T2, BChE (Equus caballus, UniProt P81908); assay: BChE inhibition (Ellman method); format: biochemical, equine; conditions: read-out: Residual Activity at 10 µM (%) BChE
T2 construct: BChE from equine serum; purchased Sigma-Aldrich; host or cells: equine serum
T2 sequence (P81908 whole entry): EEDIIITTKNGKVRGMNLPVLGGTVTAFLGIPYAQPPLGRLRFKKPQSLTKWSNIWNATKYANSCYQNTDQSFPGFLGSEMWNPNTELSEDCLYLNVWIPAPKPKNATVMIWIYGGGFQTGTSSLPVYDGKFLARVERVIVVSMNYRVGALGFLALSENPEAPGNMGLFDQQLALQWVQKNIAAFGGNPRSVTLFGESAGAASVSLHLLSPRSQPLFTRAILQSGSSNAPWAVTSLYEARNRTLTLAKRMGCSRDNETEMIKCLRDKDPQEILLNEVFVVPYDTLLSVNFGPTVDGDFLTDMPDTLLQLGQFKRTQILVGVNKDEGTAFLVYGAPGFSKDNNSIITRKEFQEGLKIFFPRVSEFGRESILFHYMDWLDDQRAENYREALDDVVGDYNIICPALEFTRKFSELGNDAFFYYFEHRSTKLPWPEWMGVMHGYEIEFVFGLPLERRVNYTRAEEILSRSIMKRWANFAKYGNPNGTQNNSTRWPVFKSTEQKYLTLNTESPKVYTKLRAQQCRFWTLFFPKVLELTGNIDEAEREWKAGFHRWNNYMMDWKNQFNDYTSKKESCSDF
Protocol: as §1
as §2, with “substrate. […]” for “substrate.”

[7] = target: T3, AChE (Electrophorus electricus, UniProt O42275); assay: AChE inhibition (Ellman method); format: biochemical; conditions: read-out: Residual Activity at 10 µM (%) AChE
T3 construct: purchased Sigma-Aldrich
T3 sequence (O42275 24-633): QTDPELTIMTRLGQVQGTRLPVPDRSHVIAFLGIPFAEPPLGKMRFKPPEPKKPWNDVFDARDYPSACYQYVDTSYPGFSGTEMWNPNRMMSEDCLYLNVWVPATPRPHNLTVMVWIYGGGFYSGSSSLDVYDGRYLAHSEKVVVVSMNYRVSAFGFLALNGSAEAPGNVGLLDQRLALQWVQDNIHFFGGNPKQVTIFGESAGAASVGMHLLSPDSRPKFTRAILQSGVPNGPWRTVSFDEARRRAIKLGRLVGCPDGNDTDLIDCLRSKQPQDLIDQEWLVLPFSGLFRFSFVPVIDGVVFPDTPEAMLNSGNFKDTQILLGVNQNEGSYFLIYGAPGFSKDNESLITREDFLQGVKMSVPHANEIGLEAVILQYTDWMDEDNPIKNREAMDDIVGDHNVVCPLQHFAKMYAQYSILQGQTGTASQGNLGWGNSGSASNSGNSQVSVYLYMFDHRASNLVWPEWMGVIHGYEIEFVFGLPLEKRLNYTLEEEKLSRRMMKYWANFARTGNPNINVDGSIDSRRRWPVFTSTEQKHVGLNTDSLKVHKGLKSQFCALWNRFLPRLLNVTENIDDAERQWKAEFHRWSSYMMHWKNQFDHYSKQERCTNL
Protocol: as §1
as §2, with “substrate. […]” for “substrate.”

[8] = target: T4, hMAO-B (Homo sapiens, UniProt P27338); assay: biochemical; format: biochemical; conditions: for SI: hMAO-B selectivity: IC50 of hMAO-A divided by IC50 of hMAO-B; for remaining activity at 10 µM: read-out: Residual Activity at 10 µM (%) hMAO-B
T4 construct: purchased Sigma-Aldrich
T4 sequence (P27338 1-520): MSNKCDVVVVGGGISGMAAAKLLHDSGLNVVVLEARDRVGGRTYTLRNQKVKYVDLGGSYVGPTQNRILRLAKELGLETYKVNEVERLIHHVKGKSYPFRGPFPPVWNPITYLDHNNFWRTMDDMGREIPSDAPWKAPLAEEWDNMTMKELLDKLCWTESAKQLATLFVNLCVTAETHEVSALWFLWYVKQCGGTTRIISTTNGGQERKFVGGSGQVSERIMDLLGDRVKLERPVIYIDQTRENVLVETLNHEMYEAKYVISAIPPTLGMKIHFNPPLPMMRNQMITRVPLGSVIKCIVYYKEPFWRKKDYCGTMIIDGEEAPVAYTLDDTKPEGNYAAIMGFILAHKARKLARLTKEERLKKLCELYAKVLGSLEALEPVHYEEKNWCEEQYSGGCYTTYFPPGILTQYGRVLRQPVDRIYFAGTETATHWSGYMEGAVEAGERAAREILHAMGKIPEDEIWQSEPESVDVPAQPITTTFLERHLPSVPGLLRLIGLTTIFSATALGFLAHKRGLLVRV
Protocol: as §1
as §2, with “substrate. […]” for “substrate.”

[9] = target: T5, BACE1 (Homo sapiens, UniProt P56817); assay: BACE1 inhibition (fluorescent activity detection kit); format: biochemical; conditions: read-out: Residual Activity at 10 µM (%) BACE1
T5 construct: purchased Sigma-Aldrich
T5 sequence (P56817 46-501): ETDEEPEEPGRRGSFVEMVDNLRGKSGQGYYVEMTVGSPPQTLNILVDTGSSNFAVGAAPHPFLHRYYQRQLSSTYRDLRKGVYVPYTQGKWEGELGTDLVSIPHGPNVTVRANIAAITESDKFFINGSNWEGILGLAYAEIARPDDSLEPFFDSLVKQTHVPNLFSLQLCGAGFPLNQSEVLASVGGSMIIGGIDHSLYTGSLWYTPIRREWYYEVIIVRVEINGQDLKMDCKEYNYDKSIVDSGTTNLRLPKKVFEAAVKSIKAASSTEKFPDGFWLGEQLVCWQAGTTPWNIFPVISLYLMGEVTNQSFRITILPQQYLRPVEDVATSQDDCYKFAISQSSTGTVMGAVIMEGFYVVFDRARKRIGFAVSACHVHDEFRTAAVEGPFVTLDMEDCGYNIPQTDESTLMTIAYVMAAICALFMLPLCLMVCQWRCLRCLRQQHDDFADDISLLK

[10] = target: T4, hMAO-B; assay: Kinetics of hMAO-B inhibition (Lineweaver-Burk and secondary plots); format: biochemical; conditions: for Inhibition type hMAO-B: Lineweaver-Burk plots; for Ki: secondary plots of Lineweaver-Burk slopes
[11] = test system: MDCK cells; assay: Cytotoxicity, CCK-8 cell viability, MDCK; format: cell-based, canine; conditions: normal cell line, up to 50 µM, 24 h
Excerpt: as §3, §4

[12] = target: T4, hMAO-B; assay: Reversibility of hMAO-B inhibition by dialysis; format: biochemical; conditions: for Reversibility of hMAO-B inhibition: dialysis; for Relative activity dialyzed (AD), hMAO-B: inhibitor at ~2 times IC50, after dialysis; for Relative activity undialyzed (AU), hMAO-B: inhibitor at ~2 times IC50, before dialysis
Protocol: as §5

[13] = target: T1, hMAO-A; assay: Kinetics of hMAO-A inhibition (Lineweaver-Burk and secondary plots); format: biochemical
Protocol: The kinetics of MAO-A inhibition by 13 was also investigated as above, except at 0.0075–0.12 mM of substrate concentrations. Inhibitory types and Ki values were determined using Lineweaver-Burk plots and secondary plots of their slopes, respectively.

SMILES | IC50 [1] [nM] | remaining activity at 10 µM [1] [%] | Toxicity to SH-SY5Y cells [2] | Effect on viability of HL-60 cells [4] | remaining activity at 10 µM [6] [%] | remaining activity at 10 µM [7] [%] | IC50 [8] [nM] | SI [8] | remaining activity at 10 µM [8] [%] | remaining activity at 10 µM [9] [%] | Inhibition type hMAO-B [10] | Ki [10] | Effect on viability of MDCK cells [11] | Reversibility of hMAO-B inhibition [12] | Relative activity dialyzed (AD), hMAO-B [12] [%] | Relative activity undialyzed (AU), hMAO-B [12] [%] | also measured
COc1ccc2c(c1)O[C@H]1c3ccc(OC)cc3OC[C@@H]21 [Compound 13, 3,9-dimethoxypterocarpan] | 1490 ± 21 | 11.6 ± 2.6 | moderate toxicity | non-toxicity; also recorded: no effects on the viabilities | 88.5 ± 1.96 | 81 ± 2.44 | 720 ± 28 | 2.07 | 4.05 ± 1.91 | 101.48 ± 0.01 | competitive inhibitor | 210 nM and 212 nM | non-toxicity; also recorded: no effects on the viabilities | reversible inhibitor | 73.5 | 32.0 | viability at 24 h, 30 µM ([3]; SH-SY5Y neuroblastoma cells): 71.1%; Reversibility of hMAO-A inhibition ([5]; dialysis): reversible inhibitor; Relative activity dialyzed (AD), hMAO-A ([5]; inhibitor at ~2 times IC50, after dialysis): 75.8%; Relative activity undialyzed (AU), hMAO-A ([5]; inhibitor at ~2 times IC50, before dialysis): 25.4%; times higher hMAO-B inhibitory activity than 12 ([8]; 9-OCH3 of 13 versus 8,9-methylenedioxy of 12): 4.7 times; Inhibition type hMAO-A ([13]; Lineweaver-Burk plots): competitive inhibitor; Ki ([13]; secondary plots of Lineweaver-Burk slopes): 617 ± 23 nM
COc1ccc2c(c1)OC1c3ccc(O)cc3OCC21 (stereo not drawn) [Compound 8, 3-hydroxy-9-methoxypterocarpan] | 19900 ± 850 | 64.18 ± 0.53 | moderate toxicity | non-toxicity; also recorded: no effects on the viabilities | 98.4 ± 1 | 80.6 ± 2.62 | 450 ± 32 | 44.2 | 4.17 ± 0.84 | 111.4 ± 0.52 | competitive inhibitor | 197 ± 4 nM | non-toxicity; also recorded: no effects on the viabilities | reversible inhibitor | 72.7 | 29.8 | viability at 24 h, 30 µM ([3]; SH-SY5Y cells): 74%; times higher hMAO-B inhibitory activity than 13 ([8]; 3-OH of 8 versus 3-OCH3 of 13): 1.6 times; times higher hMAO-B inhibition than maackiain ([8]; versus maackiain IC50 of ref 36): 1.5 times
